PMC8746574 (Molecules, 2022)
Read-outs that look alike come from different tables or passages of the source.

Assays:
[1] = tested on: SARS-CoV-2 (three strains); assay: Antiviral activity against three strains of SARS-CoV-2 on Vero E6 cells (summary statements)
[2] = MTT cytotoxicity assay in TZM-bl cells; type: cell-based; conditions: human; TZM-bl cells, MTT test, 72 h incubation
Method: (§1) The cytotoxicity of the obtained compounds was assessed in TZM-bl cells using the MTT test. The preparations were diluted with DMEM medium so that their starting concentration was 1000 μM and the final volume of DMSO was no more than 1%. Additionally, we compared the cytotoxicity of DMEM and medium with 1% DMSO in TZM-bl cells and found no significant differences in cell survival. […] A range of non-toxic concentrations was determined for each compound and used in subsequent experiments on their antiviral activity.
(§2) TZM-bl cells were seeded into 96-well culture plates (100 μL of cell suspension or 10^4 p cells per well) and placed in a CO2 incubator. The test compounds were dissolved in DMSO at a concentration of 100 mM. After 24 h of incubation, various concentrations of the test compounds (1000, 500, 250, 125, 62.5, 31.25, and 15.6 μM) were added by titration to the TZM-bl cell culture, in triplicates. DMSO was added to the control wells at a concentration of no more than 1%. The plates with the introduced drugs were incubated in a CO2 incubator at 37 °C under 5% CO2. After 72 h of incubation, 20 μL of MTT working solution (5 mg/mL) was added to each well and the plates were again incubated under the same conditions. After 2 h, the plates were removed from the CO2 incubator, and the medium in each well was replaced with DMSO solution (50 μL per well). The plates were shaken gently to dissolve the formazan crystals. The optical density of each well was determined at 570 nm using a Varioscan LUX plate reader (Thermo scientific). The survival rate of TZM-bl cells in the presence of the tested compounds was calculated using the formula: (OD of experimental wells—OD of medium)/(OD of control wells—OD of medium) × 100%, where OD is optical density.

TZM-bl cells = assay: MTT cytotoxicity assay in TZM-bl cells; type: cell-based; conditions: MTT test
Method: as §1, §2

[3] = tested on: HIV-1 pseudotyped viruses; assay: Inhibitory activity against HIV-1 pseudoviruses in TZM-bl cells (summary statements); type: cell-based; conditions: neutralizing assays, SF162.LS, QH0692, 16RU28
Method: To evaluate the inhibitory activities of the synthesized compounds, HIV-1 pseudotyped viruses SF162.LS and […] subtype B (which are included in the international reference panel), and pseudotyped viruses of the recombinant form CRF63_02A—16RU28 HIV-1 were used. Genetic variant CRF63_02A is currently the dominant type in Siberia and is rapidly spreading in the rest of the Russian Federation.
The anti-HIV-1 activity of the tested compounds was performed using the TZM-bl assay, carried out in 96-well culture plates, as described previously. Briefly, serial 2-fold dilutions of the tested compounds were prepared in DMEM growth medium, 200 TCID50 pseudovirus were added to each well and incubated for 1 h at 37 °C under 5% CO2. Trypsinized TZM-bl cell suspension was then added (100 μL of 2 × 10^5 cells/mL) and plates were further incubated at 37 °C under 5% CO2. After 48 h, the luminescence signal was recorded using the luciferase assay system (Promega). The percent inhibition for each compound was calculated as the ratio between the relative luminescence unit (RLU) values of the test wells (sample + pseudovirus + cells) and the virus control (pseudovirus + cells). Samples were tested in triplicates, and the experiment was repeated twice.

in vitro = conditions: African green monkey
[4] = tested on: HIV-1 pseudotyped virus OH0692 (subtype B); assay: TZM-bl neutralization assay with HIV-1 env-pseudovirus OH0692; type: cell-based; conditions: read-out: IC50 OH0692; HIV-1 env-pseudovirus OH0692, TZM-bl cells, luciferase after 48 h
[5] = tested on: HIV-1 pseudotyped virus SF162.LS (subtype B); assay: TZM-bl neutralization assay with HIV-1 env-pseudovirus SF162.LS; type: cell-based; conditions: read-out: IC50 SF162.LS, TZM-bl cells, luciferase after 48 h
[6] = tested on: HIV-1 pseudotyped virus 16RU28 (recombinant form CRF63_02A); assay: TZM-bl neutralization assay with HIV-1 env-pseudovirus 16RU28; type: cell-based; conditions: read-out: IC50 16RU28; HIV-1 env-pseudovirus 16RU28 (CRF63_02A), TZM-bl cells, luciferase after 48 h
[7] = tested on: SARS-CoV-2 hCoV-19/Australia/VIC01/2020 (lineage B); assay: Reduction of cytopathic effect on Vero E6 cells, MTT, strain hCoV-19/Australia/VIC01/2020; type: cell-based

Row | Compound | antiviral activity against the three coronavirus strains (in words) [1] | cytotoxicity on Vero cells (in words) (Vero E6 cells) | CC50 at 72 h [2] [µM] | toxicity against the TZM-bl cell line (in words) (TZM-bl cells) | inhibitory activity against HIV-1 pseudotyped viruses (in words) [3] | CC50 (in vitro) [µM] | IC50 [4] [µM] | IC50 [5] [µM] | IC50 [6] [µM] | IC50 ([7]; Severe acute respiratory syndrome coronavirus 2, Vero C1008, 96 h, Vero E6 cells, 100 TCD50 per well, 4 days, MTT, lineage B, read-out: IC50 hCoV-19/Aust/VIC01/2020) [µM] | IC50 ([7]; Vero C1008, SARS-CoV 2 (B), SOFTmax PRO 4.0, primary data, read-out: parameter C of 4-parameter fit, activity curve) [µg/mL] | parameter C of 4-parameter fit, toxity curve (Vero E6 cells; SOFTmax PRO 4.0, primary data, plate with strain B) | CC50 at 4 days (in vitro; Vero E6 cells) [µM]
1 | CC1(C)[C@@H](O[C@H]2O[C@H](C(=O)O)[C@@H](O)[C@H](O)[C@H]2O[C@@H]2O[C@H](C(=O)O)[C@@H](O)[C@H](O)[C@H]2O)CC[C@]2(C)[C@H]3C(=O)C=C4[C@@H]5C[C@@](C)(C(=O)O)CC[C@]5(C)CC[C@@]4(C)[C@]3(C)CC[C@@H]12 [Glycyrrhizin] | no antiviral activity | no cytotoxicity | > 1000 | negligible toxicity | did not exhibit any inhibitory activity | > 1000 | – | – | – | – | – | – | –
2 | CC1(C)C2CC[C@]3(C)C(C(=O)C=C4[C@@H]5C[C@@](C)(C(=O)O)CC[C@]5(C)CC[C@]43C)[C@@]2(C)CC[C@@H]1OC(=O)c1cccnc1 (stereo partly shown) [Nic-GA, glycyrrhetinic acid nicotinate] | did not exhibit any antiviral activity | less toxic to Vero cells than to Tzm-bl cells | < 7.8 | some cytotoxic activity | lack of inhibition | 101 | – | – | – | – | – | – | –
3 | Maraviroc [MVC] | – | – | – | – | – | – | 0.002 | 0.002 | 0.0016 | – | – | – | –
4 | CCC(CC)COC(=O)[C@H](C)N[P@](=O)(OC[C@H]1O[C@@](C#N)(c2ccc3c(N)ncnn23)[C@H](O)[C@@H]1O)Oc1ccccc1 [Remdesivir] | – | – | – | – | – | – | – | – | – | 3.3 ± 0.12 | 2020 | 428,695 µg/ml | 711 ± 21.2
